Data taken from ChEMBL document CHEMBL1201862, “PubChem BioAssay data set” (2004).
Active and inactive are the calls of the source.

Assays:
[1] = biological target: T1, Apoptotic protease-activating factor 1 (Homo sapiens, UniProt O14727); type: functional
T1 sequence (O14727 whole entry): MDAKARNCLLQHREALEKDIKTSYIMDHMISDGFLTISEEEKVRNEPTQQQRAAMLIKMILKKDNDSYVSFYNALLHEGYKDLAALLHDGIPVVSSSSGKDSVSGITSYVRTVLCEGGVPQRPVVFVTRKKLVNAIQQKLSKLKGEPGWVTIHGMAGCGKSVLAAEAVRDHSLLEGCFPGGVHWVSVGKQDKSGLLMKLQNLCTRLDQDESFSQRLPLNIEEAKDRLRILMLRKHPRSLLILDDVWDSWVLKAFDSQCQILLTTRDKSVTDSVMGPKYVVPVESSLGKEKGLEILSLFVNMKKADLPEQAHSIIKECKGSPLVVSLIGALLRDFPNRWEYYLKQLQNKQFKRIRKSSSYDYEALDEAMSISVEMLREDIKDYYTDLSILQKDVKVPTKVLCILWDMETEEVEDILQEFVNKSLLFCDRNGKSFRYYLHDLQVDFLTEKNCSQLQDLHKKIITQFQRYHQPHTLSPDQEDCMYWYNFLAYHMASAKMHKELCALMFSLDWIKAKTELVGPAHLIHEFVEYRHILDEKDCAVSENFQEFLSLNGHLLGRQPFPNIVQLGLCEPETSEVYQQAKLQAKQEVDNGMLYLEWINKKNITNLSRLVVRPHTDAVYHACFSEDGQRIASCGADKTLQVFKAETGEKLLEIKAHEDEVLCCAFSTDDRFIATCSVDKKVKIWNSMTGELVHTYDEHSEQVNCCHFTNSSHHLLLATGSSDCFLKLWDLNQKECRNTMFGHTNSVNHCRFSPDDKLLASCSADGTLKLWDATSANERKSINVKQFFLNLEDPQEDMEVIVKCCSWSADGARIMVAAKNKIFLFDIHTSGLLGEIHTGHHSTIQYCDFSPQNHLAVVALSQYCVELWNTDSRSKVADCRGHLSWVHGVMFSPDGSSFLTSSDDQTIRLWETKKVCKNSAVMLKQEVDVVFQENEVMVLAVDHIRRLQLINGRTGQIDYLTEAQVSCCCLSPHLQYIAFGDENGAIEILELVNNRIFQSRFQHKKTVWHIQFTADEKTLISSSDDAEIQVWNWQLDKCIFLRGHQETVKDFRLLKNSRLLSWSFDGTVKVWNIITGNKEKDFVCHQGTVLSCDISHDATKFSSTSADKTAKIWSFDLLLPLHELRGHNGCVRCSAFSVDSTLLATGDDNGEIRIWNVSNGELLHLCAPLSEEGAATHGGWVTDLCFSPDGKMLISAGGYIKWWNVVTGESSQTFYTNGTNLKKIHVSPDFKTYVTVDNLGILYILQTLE

[2] = biological target: T2, Endoribonuclease toxin MazF (Escherichia coli K-12, UniProt P0AE70); assay: MazF toxin RNase activators, dose response, biochemical, fluorescence, single-stranded RNA substrate, uHTS hits (AID 588481); type: functional
T2 sequence (P0AE70 whole entry): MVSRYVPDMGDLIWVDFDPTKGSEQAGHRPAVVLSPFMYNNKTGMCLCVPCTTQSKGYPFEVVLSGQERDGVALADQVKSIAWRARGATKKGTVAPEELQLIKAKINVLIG

[3] = biological target: T2, Endoribonuclease toxin MazF; assay: fluorescent RNA oligo signal without MazF, dose response, counter-screen for MazEF activator project, biochemical, fluorescence, single-stranded RNase substrate (AID 588502); type: functional
P388/ADR = assay: cells; type: functional; conditions: Mus musculus
SN12K1 = assay: cells; type: functional; conditions: Homo sapiens
P388 = assay: cells; type: functional; conditions: Mus musculus
[4] = biological target: T3, Sentrin-specific protease 8 (Homo sapiens, UniProt Q96LD8); type: functional
T3 sequence (Q96LD8 whole entry): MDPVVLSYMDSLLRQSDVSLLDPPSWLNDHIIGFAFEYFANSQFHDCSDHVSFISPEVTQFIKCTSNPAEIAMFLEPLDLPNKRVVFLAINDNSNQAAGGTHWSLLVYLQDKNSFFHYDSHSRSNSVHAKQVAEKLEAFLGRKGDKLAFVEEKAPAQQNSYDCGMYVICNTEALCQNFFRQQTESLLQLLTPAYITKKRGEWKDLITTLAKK

[5] = biological target: T3, Sentrin-specific protease 8; type: functional; remark: listed apart in the source
Caspase-6 = biological target: T4, Caspase-6 (Homo sapiens, UniProt P55212); assay: human caspase-6 inhibitors, dose response, biochemical, VEID-R110 fluorescence, cherry-pick (AID 720632)
T4 sequence (P55212 whole entry): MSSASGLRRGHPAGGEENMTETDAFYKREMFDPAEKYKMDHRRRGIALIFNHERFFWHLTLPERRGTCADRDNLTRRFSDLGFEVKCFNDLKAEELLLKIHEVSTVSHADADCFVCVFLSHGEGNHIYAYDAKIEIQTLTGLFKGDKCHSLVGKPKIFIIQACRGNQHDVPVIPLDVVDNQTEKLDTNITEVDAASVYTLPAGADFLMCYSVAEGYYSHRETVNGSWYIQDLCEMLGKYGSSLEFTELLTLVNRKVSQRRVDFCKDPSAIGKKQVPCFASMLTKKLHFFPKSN

H9c2 = assay: cells; type: functional, cell-based; conditions: Rattus norvegicus, H9c2, Myocardium;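 further: confirmatory concentration-response retest of ultra-high-throughput screening hits for modulation of myocardial damage; cell death induced by hydrogen peroxide oxidative stress; compound pretreatment for 60 min then peroxide exposure for 2 h; potency is for protecting the cells against peroxide damage rather than for killing them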
[6] = biological target: 26S proteasome non-ATPase regulatory subunit 14 (Homo sapiens, UniProt O00487); assay: inhibition of proteasome subunit RPN11 – biochemical, fluorescence polarization, uHTS hits, confirmation (AID 602368); type: functional
[7] = biological target: 72 kDa type IV collagenase (Homo sapiens, UniProt P08253); assay: Dose Response validation of uHTS RPN11 inhibitor hits using a MMP-2 Fluorescence assay.; type: functional
Prothrombin = Prothrombin (Bos taurus, UniProt P00735); assay: thrombin inhibition, dose response, biochemical, fluorescence polarization, uHTS hits (AID 602369); type: functional
HEK293 = assay: inhibitors of LMP1-driven NF-kB reporter, dose response, cell-based, HEK293, luciferase, cherry-pick (AID 588343); type: functional; conditions: Homo sapiens
[8] = biological target: T5, Latent membrane protein 1 (Human herpesvirus 4 (strain B95-8), UniProt P03230); assay: TES1-eGFP NF-kB reporter inhibition versus Tet-On dsRED, dose response, selectivity assay for LMP1 NF-kB inhibitor project, imaging, HEK293T, dual-color eGFP/dsRED, cherry-picks (AID 588398); type: functional, cell-based
T5 sequence (P03230 whole entry): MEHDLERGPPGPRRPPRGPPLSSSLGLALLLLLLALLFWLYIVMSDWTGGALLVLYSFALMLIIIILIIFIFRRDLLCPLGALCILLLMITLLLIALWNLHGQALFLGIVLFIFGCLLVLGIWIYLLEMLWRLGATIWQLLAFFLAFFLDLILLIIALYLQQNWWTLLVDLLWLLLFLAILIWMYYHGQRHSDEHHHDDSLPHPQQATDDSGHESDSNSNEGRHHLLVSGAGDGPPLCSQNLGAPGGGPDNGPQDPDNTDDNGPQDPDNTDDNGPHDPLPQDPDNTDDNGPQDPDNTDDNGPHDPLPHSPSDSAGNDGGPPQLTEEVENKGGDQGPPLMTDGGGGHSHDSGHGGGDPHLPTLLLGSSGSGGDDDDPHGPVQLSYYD

[9] = biological target: T6, Probable nicotinate-nucleotide adenylyltransferase (Staphylococcus aureus (strain N315), UniProt P65502); type: functional, Staphylococcus aureus subsp. aureus N315;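 on IC50 Mean: confirmatory dose-response retesting of NadD inhibitor hits first found in an ultra-high-throughput screen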
[10] = biological target: T6, Probable nicotinate-nucleotide adenylyltransferase; type: functional, Staphylococcus aureus subsp. aureus N315; conditions: read-out: IC50_Mean

T6 sequence (P65502 whole entry): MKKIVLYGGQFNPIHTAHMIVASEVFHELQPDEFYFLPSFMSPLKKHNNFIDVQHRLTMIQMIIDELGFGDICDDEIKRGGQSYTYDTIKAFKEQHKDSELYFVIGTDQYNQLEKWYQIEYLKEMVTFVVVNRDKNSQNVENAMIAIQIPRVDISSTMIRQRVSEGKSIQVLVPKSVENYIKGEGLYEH
Chain of 72 kDa type IV collagenase (P08253 whole entry): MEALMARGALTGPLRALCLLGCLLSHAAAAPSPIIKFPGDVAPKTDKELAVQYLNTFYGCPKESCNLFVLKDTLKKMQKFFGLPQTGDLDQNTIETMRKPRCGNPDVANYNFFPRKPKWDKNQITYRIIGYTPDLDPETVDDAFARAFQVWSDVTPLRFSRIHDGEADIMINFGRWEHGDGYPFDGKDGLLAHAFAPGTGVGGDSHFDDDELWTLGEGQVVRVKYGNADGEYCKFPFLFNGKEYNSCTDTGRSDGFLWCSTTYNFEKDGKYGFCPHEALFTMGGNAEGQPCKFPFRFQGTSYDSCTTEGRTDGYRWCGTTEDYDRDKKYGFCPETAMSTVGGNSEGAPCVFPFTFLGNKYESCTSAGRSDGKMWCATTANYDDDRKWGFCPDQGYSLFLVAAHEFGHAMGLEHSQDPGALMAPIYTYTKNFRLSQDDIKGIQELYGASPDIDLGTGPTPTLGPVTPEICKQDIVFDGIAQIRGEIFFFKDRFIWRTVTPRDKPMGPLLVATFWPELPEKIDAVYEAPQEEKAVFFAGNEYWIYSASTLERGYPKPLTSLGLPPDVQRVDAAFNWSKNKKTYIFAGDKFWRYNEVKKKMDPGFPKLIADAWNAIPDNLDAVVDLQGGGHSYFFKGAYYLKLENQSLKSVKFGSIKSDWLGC
Chain of 26S proteasome non-ATPase regulatory subunit 14 (O00487 whole entry): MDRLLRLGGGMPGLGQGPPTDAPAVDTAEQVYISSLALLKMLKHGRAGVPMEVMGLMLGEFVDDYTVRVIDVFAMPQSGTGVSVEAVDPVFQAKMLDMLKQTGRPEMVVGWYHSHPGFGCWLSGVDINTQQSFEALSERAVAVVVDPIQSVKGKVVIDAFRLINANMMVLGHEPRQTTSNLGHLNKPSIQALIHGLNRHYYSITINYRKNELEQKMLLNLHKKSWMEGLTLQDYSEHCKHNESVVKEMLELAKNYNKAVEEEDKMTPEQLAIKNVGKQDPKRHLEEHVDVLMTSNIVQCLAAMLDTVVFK

With `CC(C)N(Cc1cc2ccccc2nc1O)C(=O)C1CCCCC1` the IC50 [1] was 13.6 µM (active).
`N#C/C(=C\c1cn(-c2ccccc2)nc1-c1cc2ccccc2o1)c1nc2ccccc2[nH]1` was tested, and the EC50 [2] was > 99 µM (inactive) and the EC50 [3] was 7.03 µM (active).
With `Cn1c(=O)[nH]c2nncnc2c1=O` the IC50 [1] was 15.4 µM (active), the GI50 (P388/ADR) was 213 µM (inactive) and the GI50 (SN12K1) was 65.8 µM (inactive). For the same molecule, the GI50 (P388) was 25.8 µM (inactive), the IC50 [4] was 1.62 µM (active) and the IC50 [5] was 2.08 µM (active). For the same molecule, the AC50 (Caspase-6) was 7.06 µM (active).
For `COc1ccc(-c2ccc3c(c2)S(=O)(=O)c2cccc(C(=O)N4CCN(c5c(Cl)cncc5Cl)CC4)c2C3=O)cc1OC`, the IC50 (H9c2) was > 79 µM (inactive), the IC50 [6] was 21.7 µM (active) and the IC50 [7] was > 100 µM (inactive). For the same molecule, the IC50 (Prothrombin) was 29.3 µM (active).
With `CCn1c2ccccc2c2cc(/C=N/n3c(S)nnc3-c3cc(C)[nH]n3)ccc21` the AC50 (HEK293) was 8.12 µM (active), the AC50 [8] was 0.288 µM (active) and the IC50 [9] was 8.02 µM (active). The IC50 [10] was 33.7 µM (active).
